Results published in paper PMC3400037, “Application of a single-objective, hybrid genetic algorithm approach to pharmacokinetic model building” (Journal of Pharmacokinetics and Pharmacodynamics, 2012).
Like-named read-outs stand apart in the source and are kept apart here. Values belong to the molecule of their own block, whether it stands above or below them.

Key:
[1] = Population pharmacokinetic model of clinical plasma concentration data, manual stepwise forward inclusion/backward elimination (NONMEM); assay type: in vivo, human; details: final stepwise model, IV
Method: Manual stepwise model results were taken from the literature or were generated from unpublished data (DMAG) or data reported elsewhere in the literature. These models were determined using similar methods. Briefly, for each compound, a covariate free model was used to select the model compartment structure with the combination of inter-individual and residual variability structures resulting in the lowest objective function value calculated by NONMEM (twice the negative log likelihood plus a fixed constant offset) and a reasonable distribution of residuals as the base model.
Univariate evaluations of covariates were then performed. […] The covariate and its function form that (1) yielded the lowest objective function conditional on (2) improved the objective function value by at least 3.84 (citalopram, DMAG, and [14, 15, 17, 21]) or 7.88 [16] points compared to the base model (which corresponds to Chi-squared values of p = 0.05 and p = 0.005 with one degree of freedom, respectively) and (3) in which there appeared to be a graphical relationship between the deviation in an individual predicted value and the covariate value across individual predicted values was included in the model. The remaining covariates were then included individually in the updated model, the inclusion criteria evaluated, and the model sequentially updated with additional covariates until no further covariates met the model inclusion criteria.
Finally, individual covariates were removed from the final model and the change in the objective function was calculated. Covariates were excluded from the final model if, when the covariate was removed, the objective function value increased by less than 3.84 (citalopram, DMAG, [14, 15, 21]), 6.63 [17] (a Chi-squared value of p = 0.01 with one degree of freedom), or 7.88 [16]. Although the models were derived using different versions of NONMEM, the final models reported in the literature were re-run in NONMEM VI, Level 1.0 using Fortran G77 and NONMEM VII, version 7.2 with Intel Fortran to confirm that the results were independent of the NONMEM version.
All continuous covariates were centered at zero.

[2] = human, in vivo
Source text: Individuals who received oral olanzapine [14], perphaenazine [15], risperidone [16], or ziprasidone [17] were patients treated between January 2001 and December 2004 as part of the Clinical Antipsychotic Trials of Intervention Effectiveness (CATIE)—a multisite, US study of randomized, double-blind, medication comparative-effectiveness trial—in the treatment of Alzheimer’s (CATIE-AD) and schizophrenia (CATIE-SZ). […] Individuals who received intravenous citalopram were part of a cross sectional study of healthy volunteers participating in Pittsburgh’s Adult and Human Behavior Project; these individuals were between the ages of 30 and 55 years and not taking medications for hypertension, lipid disorders, or diabetes [22]. Individuals who received intravenous DMAG were cancer patients either at Pittsburgh’s Cancer Institute or at Memorial Sloan-Kettering participating in a phase II study.
The SOHGA operates on a set of candidate models in which each candidate specifies covariates included the in model, their functional forms, the structure of the inter-individual and residual variability, and the initial pharmacokinetic model parameter estimates [3]. Special-use software in which the SOHGA, coded and run in Microsoft Visual Studio and Compaq Digital Fortran, creates NONMEM control files to fit parameters and calculate the fitness of candidate models using NONMEM VI, Level 1.0 or NONMEM VII, version 7.2 using either first-order (risperidone only) or first-order conditional estimation with interaction using Xpose [23].
The SOHGA retained a population of 200–400 candidate models for 30–50 generations. A total of 0.7 crossover events were expected per set of parents. Candidate models for crossover were randomly selected based on scaled fitness function values; linear regression was performed using all fitness functions within two standard deviations of the mean, the fitness of the regression values were scaled to between 0.2 and 4, and outlying values were assigned one of these extreme values. This scaling of the fitness function improves convergence by not permitting outliers to dominate the selection process. The mutation rate was 0.01 mutations per bit. The candidate model with best fitness function was retained to the next generation, a technique known as elitism. Niche evaluation (where a niches differ by <4 bits) was performed. In niche evaluation, a penalty is applied to models that are similar to other models (differ by 4 or fewer bits). This prevents early convergence, maintaining diversity in the population. Four niches were used, insuring that at least four regions of the search space were explored in each phase of the search. A simple downhill search was performed every five generations. In the downhill search, each bit of the best model in each niche in reversed (0 to 1, 1 to 0) and the resulting models run. For example, if the bit string if of length 40, the downhill search will generate 40 new models for each niche that each differ by a single bit. If any of the resulting models are better than the current best model for that niche, the process is repeated with that model, until no further improvement is seen. Finally, timeout conditions were set where NONMEM timed out (terminated without completion failing convergence) after up to 600 min for a model and a generation timed out after up to 6,000 min although the exact timeout conditions varied by compound.

[3] = clinical; details: human, in vivo, iv
[4] = Population pharmacokinetic model of clinical plasma concentration data, single-objective hybrid genetic algorithm (SOHGA) coupled to NONMEM; details: best SOHGA candidate model
[5] = final stepwise model, oral, cited from earlier work; for Volume of distribution (L)—TVV / Clearance (L/h)—TVCL: one compartment with absorption; for Volume of distribution (L)—TVV: (relative standard error; perphenazine: 95 % CI from bootstrapping); for Absorption rate constant (1/h)—TVKA: fixed based on literature, not estimated
[6] = three compartment, (relative standard error)
[7] = IV, three compartment, (relative standard error)
[8] = CYP2C19 genotype, (relative standard error)
[9] = 3 component mixture for clearance, FO, (relative standard error)
[10] = 3 component mixture for clearance
[11] = oral, one compartment with absorption, (relative standard error)

- Inter-individual variability—ωQ of ηQ ([1]; standard deviation ω): 48.5 % (NA)
- Inter-individual variability—ωV1 of ηV1 ([1]; standard deviation ω): 12.2 % (NA)
- Inter-individual variability—ωV2 of ηV2 ([1]; standard deviation ω): 22.6 % (NA)
- Central volume (L)—TVV1 ([1]; two compartment): 2.87 (NA) L
- Peripheral volume (L)—TVV2 ([1]; two compartment): 1,510 (NA) L
- clearance ([1]; human, plasma, 0.33 mg/kg lean body mass, typical value (relative standard error), read-out: Clearance (L/h)—TVCL (converted)): 7.11 L/h
- Central volume (L)—TVV1 ([2]; iv): 82.1 (17.7 %) L
- Inter-comp clearance (L/h)—TVQ ([2]; iv): 6.26 (19.0 %) L/h
- Inter-individual variability—ωQ of ηQ ([2]; iv): 35.5 % (19.0 %)
- Inter-individual variability—ωV1 of ηV1 ([2]; iv): 46.2 % (15.5 %)
- Inter-individual variability—ωV2 of ηV2 ([2]; iv): 25.4 % (12.5 %)
- Peripheral volume (L)—TVV2 ([2]; iv): 205 (12.6 %) L
- clearance [3]: 20.3 mL/min
Compound: CN(C)CCCC1(c2ccc(F)cc2)OCc2cc(C#N)ccc21 (stereo not shown) [Citalopram, citalopram]

- Inter-occasion variability (first compartment volume) [1]: 59.7 % (31.2 %)
- Inter-occasion variability—ωQ1 of ηOCC,Q1 [1]: 32.6 % (37.2 %)
- Inter-patient variability—ωQ2 of ηQ2 [1]: 75.8 % (32.0 %)
- Inter-patient variability—ωV3 of ηV3 [1]: 67.5 % (37.3 %)
- Inter-individual variability—ωV1 of ηV1 ([1]; standard deviation ω): 33.0 % (111.9 %)
- Inter-individual variability—ωV2 of ηV2 ([1]; standard deviation ω): 50.7 % (23.7 %)
- Inter-patient variability—ωCL of ηCL ([1]; standard deviation ω): 53.8 % (22.9 %)
- First compartment volume (L)—TVV1 [1, 6]: 27.4 (11.7 %) L
- Second compartment volume (L)—TVV2 [1, 6]: 66.4 (10.1 %) L
- Third compartment volume (L)—TVV3 [1, 6]: 142 (13.5 %) L
- Clearance (L/h)—TVCL ([1]; typical value (relative standard error)): 8.4 (11.2 %) L/h
- Inter-individual variability—ωV1 of ηV1 ([4]; IV): 39.7 % (24.5 %)
- Inter-individual variability—ωV2 of ηV2 ([4]; IV): 42.3 % (24.8 %)
- Inter-occasion variability—ωCL of ηOCC,CL ([4]; IV): 8.3 % (38.6 %)
- Inter-occasion variability—ωQ1 of ηOCC,Q1 ([4]; IV): 14.0 % (32.7 %)
- Inter-patient variability—ωCL of ηCL ([4]; IV): 22.1 % (29.1 %)
- First compartment volume (L)—TVV1 [4, 7]: 28.1 (12.9 %) L
- Second compartment volume (L)—TVV2 [4, 7]: 77.9 (11.4 %) L
- Third compartment volume (L)—TVV3 [4, 7]: 86.4 (8.5 %) L
- Clearance (L/h)—TVCL ([4]; IV, typical value (relative standard error)): 9.28 (7.9 %) L/h
Compound: CO[C@H]1/C=C\C=C(/C)C(=O)NC2=CC(=O)C(NCCN(C)C)=C(C[C@@H](C)C[C@H](OC)[C@H](O)[C@@H](C)/C=C(\C)[C@@H]1OC(N)=O)C2=O [DMAG, 17-(dimethylaminoethylamio)-17-demethoxygeldanamycin]

- Absorption rate constant (1/h)—TVKA ([2]; po): 0.594 (23.1 %) 1/h
- Clearance (L/h)—TVCL ([2]; po): 25.5 (5.3 %) L/h
- Inter-individual variability—ωV of ηV ([2]; po): 59.4 % (32.6 %)
- Volume of distribution (L)—TVV ([2]; po): 874 (11.8 %) L
Compound: CN(C)CCC[C@@]1(c2ccc(F)cc2)OCc2cc(C#N)ccc21 [Escitalopram, escitalopram]
- Clearance (L/h)—TVCL, Missing metabolizer information ([5]; (relative standard error)): 21.5 (7.80 %) L/h
- Clearance (L/h)—TVCL, Extensive metabolizer [5, 8]: 26 (7.20 %) L/h
- Clearance (L/h)—TVCL, Poor metabolizer [5, 8]: 19.8 (8.50 %) L/h
- Inter-individual variability—ωV of ηV [5]: 62.0 % (40.3 %)
- Volume of distribution (L)—TVV [5]: 947 (10.2 %) L

Compound: Cc1cc2c(s1)Nc1ccccc1N=C2N1CCN(C)CC1 [Olanzapine, olanzapine]
- Absorption rate constant (1/h)—TVKA ([2]; po): 0.773 (70.4 %) 1/h
- Clearance (L/h)—TVCL ([2]; po): 21.1 (15.5 %) L/h
- Inter-individual variability—ωCL of ηCL ([2]; po): 64.7 % (17.2 %)
- Volume of distribution (L)—TVV ([2]; po): 4,130 (48.9 %) L
- Inter-individual variability—ωCL of ηCL [5]: 68%
- Inter-individual variability—ωV of ηV [5]: 86%
- Absorption rate constant (1/h)—TVKA [5]: Fixed at 0.5 1/h
- Clearance (L/h)—TVCL ([5]; (relative standard error)): 16.1 (7.3 %) L/h
- Volume of distribution (L)—TVV [5]: 2,150 (26.0 %) L

- Absorption rate constant (1/h)—TVKA ([2]; po): 0.859 (80.7 %) 1/h
- Clearance (L/h)—TVCL ([2]; po): 354 (12.3 %) L/h
- Inter-individual variability—ωCL of ηCL ([2]; po): 78.8 % (11.4 %)
- Volume of distribution (L)—TVV ([2]; po): 1.10x10^7 (172 %) L
Compound: OCCN1CCN(CCCN2c3ccccc3Sc3ccc(Cl)cc32)CC1 [Perphenazine, perphenazine]
- Clearance (L/h)—TVCL ([5]; (relative standard error)): 483 L/h
- Volume of distribution (L)—TVV [5]: 18,200 (13,865 - 65,795) L

Compound: Cc1nc2n(c(=O)c1CCN1CCC(c3noc4cc(F)ccc34)CC1)CCCC2 [Risperidone, risperidone]
- Absorption rate constant (1/h)—TVKA ([2]; po): 0.184.(21.1 %) 1/h
- Central volume—TVV1 ([2]; po): 96.6 (31.2 %)
- Clearance (L/h)—TVCL, Extensive metabolizer ([2]; po): 122 (11.5 %) L/h
- Clearance (L/h)—TVCL, Intermediate metabolizer ([2]; po): 34.9 (8.9 %) L/h
- Clearance (L/h)—TVCL, Poor metabolizer ([2]; po): 12.4 (8.5 %) L/h
- Inter-comp clearance—TVQ ([2]; po): 27.1 (29.9 %)
- Inter-individual variability—η^(V1) ([2]; po): 478 % (46.4 %)
- Inter-individual variability—ωCL of ηCL ([2]; po): 7.3 % (32.2 %)
- Percent of subjects who were extensive metabolizers ([2]; po): 41.4 % (8.6 %)
- Percent of subjects who were poor metabolizers ([2]; po): 22.4 % (4.4 %)
- Peripheral volume—TVV2 ([2]; po): 1.31x10^10 (1,000 %)
- Clearance (L/h)—TVCL, Extensive metabolizer [5, 9]: 65.4 (9.9 %) L/h
- Clearance (L/h)—TVCL, Poor metabolizer [5, 9]: 12.9 (6.5 %) L/h
- Inter-individual variability—ωCL of ηCL, Extensive metabolizer [5, 10]: 56.6 % (16.8 %)
- Inter-individual variability—ωCL of ηCL, Poor metabolizer [5, 10]: 95.9 % (39.5 %)
- Percent of subjects who were extensive metabolizers [5, 10]: 52.4 % (6.2 %)
- Percent of subjects who were poor metabolizers [5, 10]: 41.2 % (8.1 %)
- Inter-individual variability—ωKA of ηKA [5]: 53.7 % (89.3 %)
- Inter-individual variability—ωV of ηV [5]: 36.1 % (24.4 %)
- Absorption rate constant (1/h)—TVKA [5]: Fixed at 1.7 1/h
- Volume of distribution (L)—TVV [5]: 444 (17.8 %) L

- Absorption rate constant (1/h)—TVKA ([2]; po): 0.424 (5.8 %) 1/h
- Inter-individual variability—ωCL of ηCL ([2]; po): 69.0 % (21.4 %)
- Inter-individual variability—ωV of ηV ([2]; po): 114 % (16.0 %)
- Clearance (L/h)—TVCL [4, 11]: 126 (9.0 %) L/h
- Volume of distribution (L)—TVV [4, 11]: 1,030 (12.4 %) L
Compound: O=C1Cc2cc(CCN3CCN(c4nsc5ccccc45)CC3)c(Cl)cc2N1 [Ziprasidone, ziprasidone]
- Inter-individual variability—ωCL of ηCL [5]: 64.8 % (25 %)
- Inter-individual variability—ωV of ηV [5]: 104.4 % (27 %)
- Absorption rate constant (1/h)—TVKA [5]: Fixed at 0.5 1/h
- Clearance (L/h)—TVCL ([5]; (relative standard error)): 122 (9 %) L/h
- Volume of distribution (L)—TVV [5]: 1,060 (19 %) L
